These are literature values, as cited in EP2743282B1, “Melamine-aldehyde-condensation product and method obtaining the same” (Borealis Agrolinz Melamine GmbH, priority 2012, dated 2014).

Each structure is given as a SMILES string. ≈ marks a conversion by molar mass, not a printed value.

The conditions of this data set: in water at 20 °C.
With `CNc1nc(NC)nc(N(C)C)n1` [N,N,N',N"-tetramethylmelamine, reference compound], the water solubility was 49000 µg/mL (≈ 269 mM).

As for `CN(C)c1nc(N)nc(N(C)C)n1` [N,N,N',N'-tetramethylmelamine], the water solubility was 400 µg/mL (≈ 2.2 mM).

Consider `CN(C)c1nc(N)nc(N)n1` [N,N-dimethylmelamine], for which the water solubility was 1200 µg/mL (≈ 7.78 mM).
